Measured values reported in US4239903A, “2-Aminotetralin derivatives and process for producing the same” (priority 1977, dated 1980).
Structures can show the parent of a compound that is named as a salt. Where two headings read alike, the source gives them in different places.

Experiments:
[1] = Effect on colonic motility stimulated by neostigmine in rats; type: in vivo, rat (male STD Wistar strain); details: rat, in vivo
[2] = test system: colonic motility stimulated by neostigmine; assay: as above; type: in vivo, rat (male STD Wistar strain); details: Rattus norvegicus, neostigmine-stimulated, dose at which inhibition was observed in 50% of rats
[3] = Acute toxicity (LD50) in rats; details: rat, in vivo
[4] = test system: colonic contraction caused by stimulation of pelvic nerve; assay: Effect on colonic contraction caused by stimulation of pelvic nerve in anesthetized dogs; type: in vivo, dog (mongrel dogs of both sexes); details: Canis lupus familiaris, iv; for inhibition in vivo at 0.1 mg/kg: read-out: % Inhibition of Colonic Contraction; for ED50: read-out: c.ID50 (dose causing 50% inhibition of the colonic contraction by pelvic nerve stimulation)
Excerpt: The compounds of the present invention are extremely useful as medicines particularly acting on the lower digestive tract. […] N-Ethyl-N-[4-(3,4-dimethoxybenzoyloxy)butyl]-3-(4-methoxyphenyl)-2-propylamine hydrochloride (hereinafter referred to as "mebeverine") known as an antispasmodic for the lower digestive tract was used as a reference.
The values shown in Table 1 were obtained according to the following method [as disclosed in European Journal of Pharmacology, 18, pp. 1-14 (1972)].
Mongrel dogs of both sexes weighing 8-15 kg were used.
After intravenous anesthesizing with pentobarbital in a dose of 30 mg/kg, the animals were fixed on their back and subjected to ventrotomy along the midline of the lower abdomen. After a rubber balloon filled with water was inserted into the descending colon via the anus, 100 μg/kg of each compound was injected intravenously and changes in the internal pressure of the balloon were recorded on a polygraph through a low pressure transducer. Electric stimulation (rectangular wave, 50 cps in frequency, 1 msec in duration, 4 V in voltage) was applied to the pelvic nerve for 5 seconds every three minutes. The percent inhibition of the colonic contraction was calculated according to the following relationship. [formula]
c.ID50 values were determined by the same method as was used for Table 1.

[5] = test system: contractile response of the stomach to vagal stimulation; assay: Contractile response of the stomach to vagal stimulation in anesthetized dogs; type: in vivo, dog (mongrel dogs of both sexes); details: for ED50: Canis lupus familiaris, iv, read-out: s.ID50 (dose causing 50% inhibition of the contractile response of the stomach to vagal stimulation); for s.ID50 /c.ID50 (selectivity of antispasmodic effect): i.v., stomach vs colon
Excerpt: The compounds of the present invention are further characterized by the following property. The compounds of the present invention have selectively stronger antispasmodic effect on the lower part of the digestive tract than on the upper part of the digestive tract, in contrast to conventional anticholinergic antispasmodics which act non-selectively on the digestive tract. The evidence for this selectivity is exemplified by the results shown for representative compounds of the present invention in Table 3. In Table 3, the s.ID50 and c.ID50 values represent the doses causing 50% inhibition of the contractile response of the stomach to vagal stimulation and 50% inhibition of the colonic contraction by pelvic nerve stimulation, respectively, in dogs. These values and their ratios (s.ID50 /c.ID50) indicate that these compounds have higher selectivity than mebeverine, as is clear from Table 3.
The determination of gastric motility was carried out according to the method described in European Journal of Pharmacology, 18, pp. 1-14 (1972).
More specifically mongrel dogs of both sexes weighing 8-15 kg were used. After anesthesizing the animals with 30 mg/kg (i.v.) of pentobarbital, the animals were fixed on their back and a midline incision was made in the upper abdomen. A rubber balloon filled with water was inserted into the stomach through an incision in the greater curvature. Changes in internal pressure of the balloon were recorded on a polygraph via a low pressure transducer. Electric stimulation (rectangular wave, 20 cps in frequency, 1 msec in duration, 8 V in voltage) was applied to the vagus nerve for 10 seconds every three minutes. The percent inhibition of the contractile response of the stomach was calculated from the relationship shown above.

[6] = 100 μg/kg, i.v., pelvic nerve stimulation, anesthetized dogs

Compound: COc1ccc2c(c1)CCC(N(CCCCOC(=O)c1ccc(OC)c(OC)c1)C(C)C)C2.Cl (stereo not drawn) [Compound L, N-Isopropyl-N-[4-(3,4-dimethoxybenzoyloxy)butyl]-6-methoxy-1,2,3,4-tetrahydro-2-naphthylamine hydrochloride]
- safety margin (LD50/ED50) ([1]; po): 89
- ED50 ([2]; iv): 0.173 mg/kg
- ED50 ([2]; po): 17.3 mg/kg
- LD50 ([3]; po): 1540 mg/kg

Compound: CCN(CCCCOC(=O)c1ccc(OC)c(OC)c1)C1CCc2ccccc2C1 (stereo not drawn) [Compound A, N-Ethyl-N-[4-(3,4-dimethoxybenzoyloxy)butyl]-1,2,3,4-tetrahydro-2-naphthylamine hydrochloride]
- inhibition in vivo at 0.1 mg/kg [4, 6]: 27.9%

Compound: CCN(CCCCOC(=O)c1ccc(OC)c(OC)c1)C1CCc2ccc(OC)cc2C1 (stereo not drawn) [Compound H, N-Ethyl-N-[4-(3,4-dimethoxybenzoyloxy)butyl]-7-methoxy-1,2,3,4-tetrahydro-2-naphthylamine hydrochloride]
- inhibition in vivo at 0.1 mg/kg [4, 6]: 30.9%

Compound: CCN(CCCCOC(=O)c1ccc(OC)c(OC)c1)C(C)Cc1ccc(OC)cc1.Cl (stereo not drawn) [Mebeverine, N-Ethyl-N-[4-(3,4-dimethoxybenzoyloxy)butyl]-3-(4-methoxyphenyl)-2-propylamine hydrochloride, reference compound]
- ED50 ([2]; iv): 0.151 mg/kg
- ED50 ([2]; po): 30 mg/kg
- ED50 [5]: 0.823 mg/kg
- s.ID50 /c.ID50 (selectivity of antispasmodic effect) ([5]; dogs): < 2.74
- LD50 ([3]; iv): 17.7 mg/kg
- LD50 ([3]; po): 1540 mg/kg
- inhibition in vivo at 0.1 mg/kg [4]: 22%
- ED50 [4]: > 0.3 mg/kg

Compound: CCN(CCCCOC(=O)c1ccc(OC)c(OC)c1)C1CCc2cccc(OC)c2C1 (stereo not drawn) [Compound K, N-Ethyl-N-[4-(3,4-dimethoxybenzoyloxy)butyl]-8-methoxy-1,2,3,4-tetrahydro-2-naphthylamine hydrochloride]
- inhibition in vivo at 0.1 mg/kg [4, 6]: 40%

Compound: CCN(CCCCCCOC(=O)c1ccc(OC)c(OC)c1)C1CCc2cc(OC)ccc2C1.Cl (stereo not drawn) [Compound D, N-Ethyl-N-[6-(3,4-dimethoxybenzoyloxy)hexyl]-6-methoxy-1,2,3,4-tetrahydro-2-naphthylamine hydrochloride]
- safety margin (LD50/ED50) ([1]; iv): 767
- safety margin (LD50/ED50) ([1]; po): 515
- ED50 ([2]; iv): 0.046 mg/kg
- ED50 ([2]; po): 5.5 mg/kg
- ED50 ([5]; dogs): 0.614 mg/kg
- s.ID50 /c.ID50 (selectivity of antispasmodic effect) ([5]; dogs): 7.40
- LD50 ([3]; iv): 35.3 mg/kg
- LD50 ([3]; po): 2830 mg/kg
- ED50 ([4]; dogs): 0.083 mg/kg
- inhibition in vivo at 0.1 mg/kg [4, 6]: 54.7%

Compound: CCCN(CCCCOC(=O)c1ccc(OC)c(OC)c1)C1CCc2cc(OC)ccc2C1.Cl (stereo not drawn) [Compound E, N-Propyl-N-[4-(3,4-dimethoxybenzoyloxy)butyl]-6-methoxy-1,2,3,4-tetrahydro-2-naphthylamine hydrochloride]
- safety margin (LD50/ED50) ([1]; iv): 129
- safety margin (LD50/ED50) ([1]; po): 41
- ED50 ([2]; iv): 0.173 mg/kg
- ED50 ([2]; po): 17.3 mg/kg
- LD50 ([3]; iv): 22.3 mg/kg
- LD50 ([3]; po): 707 mg/kg
- inhibition in vivo at 0.1 mg/kg [4, 6]: 22.4%

Compound: CCN(CCCCCCOC(=O)c1ccc(OC)c(OC)c1)C1CCc2cc(OC)c(OC)cc2C1.Cl (stereo not drawn) [Compound G, N-Ethyl-N-[6-(3,4-dimethoxybenzoyloxy)hexyl]-6,7-dimethoxy-1,2,3,4-tetrahydro-2-naphthylamine hydrochloride]
- safety margin (LD50/ED50) ([1]; iv): 885
- safety margin (LD50/ED50) ([1]; po): 330
- ED50 ([2]; iv): 0.02 mg/kg
- ED50 ([2]; po): 1.7 mg/kg
- LD50 ([3]; iv): 17.5 mg/kg
- LD50 ([3]; po): 561 mg/kg
- inhibition in vivo at 0.1 mg/kg [4, 6]: 54.2%

Compound: CCN(CCCCCCOC(=O)c1ccc(OC)c(OC)c1)C1CCc2ccccc2C1.Cl (stereo not drawn) [Compound B, N-Ethyl-N-[6-(3,4-dimethoxybenzoyloxy)hexyl]-1,2,3,4-tetrahydro-2-naphthylamine hydrochloride]
- safety margin (LD50/ED50) ([1]; iv): 206
- safety margin (LD50/ED50) ([1]; po): > 364
- ED50 ([2]; iv): 0.086 mg/kg
- ED50 ([2]; po): 5.5 mg/kg
- LD50 ([3]; iv): 17.7 mg/kg
- LD50 ([3]; po): > 2000 mg/kg
- inhibition in vivo at 0.1 mg/kg [4, 6]: 56%

Compound: CCN(CCCCOC(=O)c1ccc(OC)c(OC)c1)C1CCc2cc(OC)c(OC)cc2C1.Cl (stereo not drawn) [Compound F, N-Ethyl-N-[4-(3,4-dimethoxybenzoyloxy)butyl]-6,7-dimethoxy-1,2,3,4-tetrahydro-2-naphthylamine hydrochloride]
- safety margin (LD50/ED50) ([1]; iv): 648
- safety margin (LD50/ED50) ([1]; po): 280
- ED50 ([2]; iv): 0.025 mg/kg
- ED50 ([2]; po): 5.5 mg/kg
- ED50 ([5]; dogs): 0.266 mg/kg
- s.ID50 /c.ID50 (selectivity of antispasmodic effect) ([5]; dogs): 4.67
- LD50 ([3]; iv): 16.2 mg/kg
- LD50 ([3]; po): 1540 mg/kg
- ED50 ([4]; dogs): 0.057 mg/kg
- inhibition in vivo at 0.1 mg/kg [4, 6]: 63.8%

Compound: CCN(CCCCOC(=O)c1ccc(OC)c(OC)c1)C1CCc2cc(OC)ccc2C1.Cl (stereo not drawn) [Compound C, N-Ethyl-N-[4-(3,4-dimethoxybenzoyloxy)butyl]-6-methoxy-1,2,3,4-tetrahydro-2-naphthylamine hydrochloride]
- safety margin (LD50/ED50) ([1]; iv): 114
- safety margin (LD50/ED50) ([1]; po): > 139
- ED50 ([2]; iv): 0.169 mg/kg
- ED50 ([2]; po): 14.4 mg/kg
- LD50 ([3]; iv): 19.3 mg/kg
- LD50 ([3]; po): > 2000 mg/kg
- inhibition in vivo at 0.1 mg/kg [4, 6]: 20%
